Source: the supplement of paper PMC10307832

What was measured:
Test in all cases: relative viability (nuclei count vs DMSO), 5 days (fraction); higher = more cells survive
Bleomycin + Foretinib = compound: CC1=C(N=C(N=C1N)[C@H](CC(=O)N)NC[C@@H](C(=O)N)N)C(=O)N[C@@H]([C@H](C2=CN=CN2)OC3C(C(C(C(O3)CO)O)O)OC4C(C(C(C(O4)CO)O)OC(=O)N)O)C(=O)N[C@H](C)[C@H]([C@H](C)C(=O)N[C@@H]([C@@H](C)O)C(=O)NCCC5=NC(=CS5)C6=NC(=CS6)C(=O)NCCC[S+](C)C)O [Bleomycin] + COc1cc2c(Oc3ccc(NC(=O)C4(C(=O)Nc5ccc(F)cc5)CC4)cc3F)ccnc2cc1OCCCN1CCOCC1 [Foretinib] (partner 0.25 µM); settings: main component drawn
Outline: (§1)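 Five library-drug doses in √10 steps were combined with a fixed anchor-drug dose, or a single drug was given alone, by pin tool to lung cancer cell lines in 1536-well plates the day after seeding. Nuclei were stained and counted after 5 days. Relative viability is the nuclei count in treated wells over that in vehicle wells, taken as the median of duplicate plates.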

Bleomycin + Crizotinib = compound: CC1=C(N=C(N=C1N)[C@H](CC(=O)N)NC[C@@H](C(=O)N)N)C(=O)N[C@@H]([C@H](C2=CN=CN2)OC3C(C(C(C(O3)CO)O)O)OC4C(C(C(C(O4)CO)O)OC(=O)N)O)C(=O)N[C@H](C)[C@H]([C@H](C)C(=O)N[C@@H]([C@@H](C)O)C(=O)NCCC5=NC(=CS5)C6=NC(=CS6)C(=O)NCCC[S+](C)C)O [Bleomycin] + C[C@@H](Oc1cc(-c2cnn(C3CCNCC3)c2)cnc1N)c1c(Cl)ccc(F)c1Cl [Crizotinib] (partner 1 µM); settings: main component drawn
Outline: as §1

Bleomycin + Linsitinib = compound: CC1=C(N=C(N=C1N)[C@H](CC(=O)N)NC[C@@H](C(=O)N)N)C(=O)N[C@@H]([C@H](C2=CN=CN2)OC3C(C(C(C(O3)CO)O)O)OC4C(C(C(C(O4)CO)O)OC(=O)N)O)C(=O)N[C@H](C)[C@H]([C@H](C)C(=O)N[C@@H]([C@@H](C)O)C(=O)NCCC5=NC(=CS5)C6=NC(=CS6)C(=O)NCCC[S+](C)C)O [Bleomycin] + C[C@]1(O)C[C@@H](c2nc(-c3ccc4ccc(-c5ccccc5)nc4c3)c3c(N)nccn32)C1 [Linsitinib] (partner 1 µM); settings: main component drawn
Outline: as §1

Etoposide + Pictilisib = compound: COc1cc([C@@H]2c3cc4c(cc3[C@@H](O[C@@H]3O[C@@H]5CO[C@@H](C)O[C@H]5[C@H](O)[C@H]3O)[C@H]3COC(=O)[C@H]23)OCO4)cc(OC)c1O [Etoposide] + CS(=O)(=O)N1CCN(Cc2cc3nc(-c4cccc5[nH]ncc45)nc(N4CCOCC4)c3s2)CC1 [Pictilisib] (partner 1 µM)
Outline: as §1

Row | Cell Line | relative viability (Bleomycin + Foretinib; first compound 0.01 µM) | relative viability (Bleomycin + Foretinib; first compound 0.03162 µM) | relative viability (Bleomycin + Foretinib; first compound 0.1 µM) | relative viability (Bleomycin + Foretinib; first compound 0.3162 µM) | relative viability (Bleomycin + Foretinib; first compound 1 µM) | relative viability (Bleomycin + Crizotinib; first compound 0.01 µM) | relative viability (Bleomycin + Crizotinib; first compound 0.03162 µM) | relative viability (Bleomycin + Crizotinib; first compound 0.1 µM) | relative viability (Bleomycin + Crizotinib; first compound 0.3162 µM) | relative viability (Bleomycin + Crizotinib; first compound 1 µM) | relative viability (Bleomycin + Linsitinib; first compound 0.01 µM) | relative viability (Bleomycin + Linsitinib; first compound 0.03162 µM) | relative viability (Bleomycin + Linsitinib; first compound 0.1 µM) | relative viability (Bleomycin + Linsitinib; first compound 0.3162 µM) | relative viability (Bleomycin + Linsitinib; first compound 1 µM) | relative viability (Etoposide + Pictilisib; first compound 0.03162 µM) | relative viability (Etoposide + Pictilisib; first compound 0.1 µM) | relative viability (Etoposide + Pictilisib; first compound 0.3162 µM) | relative viability (Etoposide + Pictilisib; first compound 1 µM) | relative viability (Etoposide + Pictilisib; first compound 0.01 µM)
1 | LCLC-97TM1 | 0.912 | 0.809 | 0.628 | 0.274 | 0.176 | 0.18 | 0.219 | 0.14 | 0.109 | 0.0966 | 0.138 | 0.165 | 0.141 | 0.109 | 0.0963 | 0.172 | 0.115 | 0.116 | 0.109 | 
2 | NCI-H838 | 0.617 | 0.368 | 0.274 | 0.201 | 0.204 | 0.437 | 0.32 | 0.184 | 0.176 | 0.172 | 0.652 | 0.314 | 0.191 | 0.189 | 0.159 | 0.544 | 0.284 | 0.329 | 0.186 | 0.461
3 | NCI-H1355 | 0.931 | 0.971 | 0.937 | 0.52 | 0.348 | 0.948 | 1.03 | 0.926 | 0.538 | 0.298 | 0.794 | 0.838 | 0.783 | 0.463 | 0.287 | 0.552 | 0.276 | 0.284 | 0.144 | 0.492
4 | HOP-62 | 0.596 | 0.458 | 0.39 | 0.193 | 0.127 | 0.531 | 0.477 | 0.325 | 0.144 | 0.106 | 0.485 | 0.554 | 0.335 | 0.135 | 0.112 | 1.01 | 0.321 | 0.448 | 0.149 | 0.796
5 | NCI-H2085 | 1.03 | 0.845 | 0.692 | 0.461 | 0.396 | 0.608 | 0.723 | 0.671 | 0.372 | 0.404 | 0.678 | 0.823 | 0.632 | 0.346 | 0.363 | 0.491 | 0.324 | 0.433 | 0.287 | 0.513
